Source: publication PMC7036097 (BioMed Research International, 2020)

Biological target: T1, DPP4 (Homo sapiens, UniProt P27487)
T1 construct: purchased Sigma
Assay: DPPIV-Glo Protease Assay (DPP4 protease inhibition assay)
Type: biochemical
Conditions: in vitro
Description: At the same time, the inhibitory effect of other compounds present in tea such as epigallocatechin, epicatechin gallate, epicatechin, and catechin on DPP4 activity was also determined. […] Epigallocatechin, epicatechin gallate, epicatechin, and catechin were obtained from bidepharm (Shanghai, China). Half maximal inhibitory concentration (IC50) values were determined by nonlinear regression in GraphPad Prism 6 software.

T1 sequence (P27487 whole entry): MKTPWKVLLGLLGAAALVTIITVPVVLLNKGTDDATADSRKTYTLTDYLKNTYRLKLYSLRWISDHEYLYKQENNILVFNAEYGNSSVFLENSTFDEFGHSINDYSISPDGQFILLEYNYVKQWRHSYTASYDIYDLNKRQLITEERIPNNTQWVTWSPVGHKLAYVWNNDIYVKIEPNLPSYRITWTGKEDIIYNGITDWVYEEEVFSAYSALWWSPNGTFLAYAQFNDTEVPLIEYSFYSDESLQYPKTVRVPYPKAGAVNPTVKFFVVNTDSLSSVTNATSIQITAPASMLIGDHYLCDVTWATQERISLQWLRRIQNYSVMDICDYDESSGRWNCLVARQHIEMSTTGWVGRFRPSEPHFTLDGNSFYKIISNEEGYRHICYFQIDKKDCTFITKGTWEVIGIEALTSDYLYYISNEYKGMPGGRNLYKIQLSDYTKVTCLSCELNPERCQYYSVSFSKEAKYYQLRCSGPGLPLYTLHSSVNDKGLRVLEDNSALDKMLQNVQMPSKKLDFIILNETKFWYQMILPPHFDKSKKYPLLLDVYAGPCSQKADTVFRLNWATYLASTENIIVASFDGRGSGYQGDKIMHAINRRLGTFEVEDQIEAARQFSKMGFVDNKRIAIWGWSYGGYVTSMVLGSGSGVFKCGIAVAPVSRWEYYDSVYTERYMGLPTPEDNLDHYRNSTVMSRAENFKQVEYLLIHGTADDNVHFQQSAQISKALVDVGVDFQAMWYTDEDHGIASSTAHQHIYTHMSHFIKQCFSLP

SMILES | IC50 [µM]
O=C(OC1Cc2c(O)cc(O)cc2OC1c1cc(O)c(O)c(O)c1)c1cc(O)c(O)c(O)c1 (centres unmarked) [EGCG, Epigallocatechin-3-gallate] | 28.4
O=C(O[C@@H]1Cc2c(O)cc(O)cc2O[C@@H]1c1ccc(O)c(O)c1)c1cc(O)c(O)c(O)c1 [epicatechin gallate] | 107
Oc1cc(O)c2c(c1)O[C@H](c1cc(O)c(O)c(O)c1)[C@H](O)C2 [epigallocatechin] | 567

Further molecules by falling IC50, results first:

IC50 [µM] | SMILES
381 | Oc1cc(O)c2c(c1)O[C@H](c1ccc(O)c(O)c1)[C@@H](O)C2 [catechin]
281 | Oc1cc(O)c2c(c1)O[C@H](c1ccc(O)c(O)c1)[C@H](O)C2 [epicatechin]
